Laboratory results as given in patent US8178688B2, “Benzamidine derivatives, process for the preparation thereof and pharmaceutical composition comprising the same” (Dong Wha Pharmaceutical Co., Ltd., priority 2004, dated 2012).

These compounds were tested on cells (assay: Cytotoxicity test (MTT)). Details: MC3T3-E1 cells, 10^−6M, 72 hrs, compared with the control group.
Type: cell-based
Experimental: Cytotoxic effect of benzamidine derivatives was evaluated by the experiment described below.
The test substance was diluted in appropriate solvent at 10^−2M concentration. […] Cells to be used in cytotoxitic test were plated on a 96-well microplate in a dose of 1×10^4 cell/100 μL per well and cultured for 72 hrs. 25 μL of MTT [3-(4,5-dimethyl-2-thiazolyl)-2,5-diphenyl-2H-tetrazolium bromide] dissolved in PBS at 2 mg/mL were added before 4 hrs of the end of culture. After reaction, the plates were centrifuged, medium was decanted and 100 μL of DMSO was added to dissolve formazan. Lastly, the absorbance of developed plates was measured at 540 nm.
With `CCS(=O)(=O)N(C)c1nc(-c2ccc(OCCCCCOc3ccc(C(=N)NO)cc3)cc2)cs1` [Example 118, N-hydroxy-4-(5-[4-(2-(ethanesulfonyl-methyl-amino)-1,3-thiazol-4-yl)phenoxy]pentoxy)-benzamidine] the “Survival rates of the cells” value was 75.3%.

Same assay, conditions: ST2 cells, 10^−6M, 72 hrs, compared with the control group
In the case of `CCS(=O)(=O)N(C)c1nc(-c2ccc(OCCCCCOc3ccc(C(=N)NO)cc3)cc2)cs1` [Example 118, N-hydroxy-4-(5-[4-(2-(ethanesulfonyl-methyl-amino)-1,3-thiazol-4-yl)phenoxy]pentoxy)-benzamidine], the “Survival rates of the cells” value is reported as 53.2%.

What follows are compounds tested on osteoclast differentiation (assay: Inhibitory effects on osteoclast differentiation (co-culture of bone marrow cells with osteoblast, TRAP staining)). Details: Mus musculus, Osteoclast, 168 h, read-out: % inhibitory activity on osteoclastogenesis.
Type: cell-based, mice
Procedure, shortened: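 Bone marrow cells from 6–8-week male ddY mice co-cultured with neonatal ICR mouse calvarial osteoblasts in α-MEM/FBS with dexamethasone (10^−7M) and vitamin D3 (10^−8M) for 7 days, compound and medium renewed every 2–3 days. TRAP-positive cells with ≥3 nuclei counted; inhibition given as percent of control.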
`CCCN1CCC(c2nc(-c3ccc(OCCCCCOc4ccc(C(=N)NO)cc4)cc3)c(C)s2)CC1` [Example 72, N-hydroxy-4-(5-[4-(5-methyl-2-(1-propyl-piperidin-4-yl)-1,3-thiazol-4-yl)phenoxy]pentoxy)-benzamidine] was tested, and the inhibition at 1 µM was 67.9%.
`CCCN1CCC(c2nc(-c3ccc(OCCCCCOc4ccc(C(=N)NO)cc4)cc3)c(CC3CCCC3)s2)CC1` [Example 68, N-hydroxy-4-(5-[4-(5-cyclopentylmethyl-2-(1-propyl-piperidin-4-yl)-1,3-thiazol-4-yl)phenoxy]pentoxy)-benzamidine] gave an inhibition at 1 µM of 83%.

Same assay, conditions: Mus musculus, Osteoclast, 168 h; 1 m; co-culture of bone marrow cells and osteoblast, 7 days, TRAP-positive osteoclasts versus controls; read-out: % inhibitory activity on osteoclastogenesis
`CCS(=O)(=O)N(C)c1nc(-c2ccc(OCCCCCOc3ccc(C(=N)NO)cc3)cc2)cs1` [Example 118, N-hydroxy-4-(5-[4-(2-(ethanesulfonyl-methyl-amino)-1,3-thiazol-4-yl)phenoxy]pentoxy)-benzamidine] showed an inhibition at 1 µM of 82.9%.
With `N=C(NO)c1ccc(OCCCCCOc2ccc(-c3nc(N)sc3Cc3ccccc3)cc2)cc1` [Example 65, N-hydroxy-4-(5-[4-(2-amino-5-benzyl-1,3-thiazol-4-yl)phenoxy]pentoxy)-benzamidine] the inhibition at 1 µM was 46%.
With `CCc1sc(N(C)Cc2cccnc2)nc1-c1ccc(OCCCOc2ccc(C(=N)NO)cc2)cc1` [Example 199, N-hydroxy-4-(3-[4-(5-ethyl-2-[methyl-(pyridin-3-yl-methyl)amino]-thiazol-4-yl)phenoxy]propoxy)-benzamidine] the inhibition at 1 µM was 82.9%.
`CCCCc1sc(NC)nc1-c1ccc(OCCCCCOc2ccc(C(=N)NO)cc2)cc1` [Example 105, N-hydroxy-4-(5-[4-(5-butyl-2-methylamino-1,3-thiazol-4-yl)phenoxy]pentoxy)-benzamidine] gave an inhibition at 1 µM of 61.1%.
In the case of `CCN(CC)c1nc(-c2ccc(OCCCCCOc3ccc(C(=N)NO)cc3)cc2)c(CC2CCCC2)s1` [Example 160, N-hydroxy-4-(5-[4-(5-cyclopentylmethyl-2-diethylamino-1,3-thiazol-4-yl)phenoxy]pentoxy)-benzamidine], the inhibition at 1 µM is reported as 83.7%.
`CCc1sc(NCCOC)nc1-c1ccc(OCCCCCOc2ccc(C(=N)NO)cc2)cc1` [Example 102, N-hydroxy-4-(5-[4-(5-ethyl-2-(2-methoxyethyl)amino-1,3-thiazol-4-yl)phenoxy]pentoxy)-benzamidine] gave an inhibition at 1 µM of 96.4%.
Compound `CCc1sc(N(C)CCO)nc1-c1ccc(OCCCCOc2ccc(C(=N)NO)cc2)cc1` [Example 198, N-hydroxy-4-(4-[4-(5-ethyl-2-[(2-hydroxyethyl)-methyl-amino]-thiazol-4-yl)phenoxy]butoxy)-benzamidine] has an inhibition at 1 µM of 36.9%.
`Cc1sc(NC(=O)c2cccnc2)nc1-c1ccc(OCCCCCOc2ccc(C(=N)NO)cc2)cc1` [Example 92, N-hydroxy-4-(5-[4-(5-methyl-2-(3-pyridylcarbonyl)amino-1,3-thiazol-4-yl)phenoxy]pentoxy)-benzamidine] gave an inhibition at 1 µM of 49%.
Compound `CCCCc1sc(C(C)C)nc1-c1ccc(OCc2ccc(COc3ccc(C(=N)NO)cc3)cc2)cc1` [Example 202, N-hydroxy-4-(4-[4-(5-butyl-2-isopropyl-thiazol-4-yl)-phenoxymethyl]-benzyloxy)-benzamidine] has an inhibition at 1 µM of 85.6%.
`C=Cc1sc(N)nc1-c1ccc(OCCCCCOc2ccc(C(=N)NO)cc2)cc1` [Example 78, N-hydroxy-4-(5-[4-(5-vinyl-2-amino-1,3-thiazol-4-yl)phenoxy]pentoxy)-benzamidine] showed an inhibition at 1 µM of 97.5%.
`CCc1sc(NC(=O)c2cccnc2)nc1-c1ccc(OCCCCCOc2ccc(C(=N)NO)cc2)cc1` [Example 101, N-hydroxy-4-(5-[4-(5-ethyl-2-(3-pyridylcarbonyl)amino-1,3-thiazol-4-yl)phenoxy]pentoxy)-benzamidine] was tested, and the inhibition at 1 µM was 43.7%.
`Cc1nc(-c2ccc(OCCCCOc3ccc(C(=N)NO)cc3)cc2)c(C(C)C)s1` [Example 194, N-hydroxy-4-(4-[4-(5-isopropyl-2-methyl-1,3-thiazol-4-yl)phenoxy]butoxy)-benzamidine] showed an inhibition at 1 µM of 19.8%.
`CCNc1nc(-c2ccc(OCCCCCOc3ccc(C(=N)NO)cc3)cc2)c(Cc2ccccc2)s1` [Example 108, N-hydroxy-4-(5-[4-(5-benzyl-2-ethylamino-1,3-thiazol-4-yl)phenoxy]pentoxy)-benzamidine] was tested, and the inhibition at 1 µM was 25.4%.
Work on `Cc1nc(-c2ccc(OCCCCCOc3ccc(C(=N)NO)c(NC4CCCCC4)c3)cc2)c(C(C)C)s1` [Example 190, N-hydroxy-2-cyclohexylamino-4-(5-[4-(5-isopropyl-2-methyl-1,3-thiazol-4-yl)-phenoxy]-pentoxy)-benzamidine] yielded an inhibition at 1 µM of 27.3%.
For `N=C(N)Nc1nc(-c2ccc(OCCCCCOc3ccc(C(=N)NO)cc3)cc2)c(Cc2ccccc2)s1` [Example 66, N-hydroxy-4-(5-[4-(5-benzyl-2-guanidino-1,3-thiazol-4-yl)phenoxy]pentoxy)-benzamidine], the inhibition at 1 µM was 38.5%.
`N=C(NO)c1ccc(OCCCCCOc2ccc(-c3csc(N4CCOCC4)n3)cc2)cc1` [Example 175, N-hydroxy-4-(5-[4-(2-morpholin-4-yl-1,3-thiazol-4-yl)phenoxy]pentoxy)-benzamidine] was tested, and the inhibition at 1 µM was 61.9%.
`CC(C)c1sc(CN2CCOCC2)nc1-c1ccc(OCCCCCOc2ccc(C(=N)NO)cc2)cc1` [Example 70, N-hydroxy-4-(5-[4-(5-isopropyl-2-morpholinomethyl-1,3-thiazol-4-yl)phenoxy]pentoxy)-benzamidine] showed an inhibition at 1 µM of 32.7%.
`Cc1nc(-c2ccc(OCCCCC(=O)Nc3ccc(C(=N)NO)cc3)cc2)c(C(C)C)s1` [Example 182, N-hydroxy-4-(5-[4-(5-isopropyl-2-methyl-1,3-thiazol-4-yl)-phenoxy]-pentanoyl-amino)-benzamidine] gave an inhibition at 1 µM of 81.1%.
Compound `CCN(CC)c1nc(-c2ccc(OCCCCCOc3ccc(C(=N)NO)cc3)cc2)c(C(C)C)s1` [Example 162, N-hydroxy-4-(5-[4-(5-isopropyl-2-diethylamino-1,3-thiazol-4-yl)phenoxy]pentoxy)-benzamidine] has an inhibition at 1 µM of 87.4%.
With `CCCCc1sc(NCC)nc1-c1ccc(OCCCCCOc2ccc(C(=N)NO)cc2)cc1` [Example 106, N-hydroxy-4-(5-[4-(5-butyl-2-ethylamino-1,3-thiazol-4-yl)phenoxy]pentoxy)-benzamidine] the inhibition at 1 µM was 0%.
`CCc1sc(C2CCCCC2)nc1-c1ccc(OCCCCOc2ccc(C(=N)NO)cc2)cc1` [Example 196, N-hydroxy-4-(4-[4-(2-cyclohexyl-5-ethyl-thiazol-4-yl)-phenoxy]-butoxy)-benzamidine] showed an inhibition at 1 µM of 82%.
For `CCc1sc(NS(=O)(=O)CC)nc1-c1ccc(OCCCCCOc2ccc(C(=N)NO)cc2)cc1` [Example 95, N-hydroxy-4-(5-[4-(2-ethanesulfonylamino-5-ethyl-1,3-thiazol-4-yl)phenoxy]pentoxy)-benzamidine], the inhibition at 1 µM was 47.1%.

Same assay, conditions: Mus musculus, Osteoclast, 168 h; 1 μm; co-culture of bone marrow cells and osteoblast, 7 days, TRAP-positive osteoclasts versus controls; read-out: % inhibitory activity on osteoclastogenesis
`Cc1nc(-c2ccc(OCCCCCOc3ccc(C(=N)N)cc3)cc2)c(C)s1` [Example 54, 4-(5-[4-(2,5-dimethyl-1,3-thiazol-4-yl)phenoxy]pentoxy)-benzamidine] gave an inhibition at 1 µM of 94.2%.
With `CCc1sc(C(C)C)nc1-c1ccc(OCCCCCOc2ccc(C(=N)NO)cc2)cc1` [Example 19, N-hydroxy-4-(5-[4-(5-ethyl-2-isopropyl-1,3-thiazol-4-yl)phenoxy]pentoxy)-benzamidine] the inhibition at 1 µM was 42.6%.
With `CCc1sc(-c2ccccc2)nc1-c1ccc(OCCCCCOc2ccc(C(=N)N)cc2)cc1` [Example 56, 4-(5-[4-(5-ethyl-2-phenyl-1,3-thiazol-4-yl)phenoxy]pentoxy)-benzamidine] the inhibition at 1 µM was 58.7%.
In the case of `Cc1sc(C(C)C)nc1-c1ccc(OCCCCCOc2ccc(C(=N)NO)cc2)cc1` [Example 1, N-hydroxy-4-(5-[4-(2-isopropyl-5-methyl-1,3-thiazol-4-yl)phenoxy]pentoxy)-benzamidine], the inhibition at 1 µM is reported as 87%.
With `Cc1nc(-c2ccc(OCCCCCOc3ccc(C(=N)N)cc3)cc2)cs1` [Example 52, 4-(5-[4-(2-methyl-1,3-thiazol-4-yl)phenoxy]pentoxy)-benzamidine] the inhibition at 1 µM was 0%.
`Cc1sc(C(C)C)nc1-c1ccc(OCCCCCOc2ccc(C(=N)N)cc2)cc1` [Example 2, 4-(5-[4-(2-isopropyl-5-methyl-1,3-thiazol-4-yl)phenoxy]pentoxy)-benzamidine] showed an inhibition at 1 µM of 78.4%.
`CCc1sc(C(C)C)nc1-c1ccc(OCCCCCOc2ccc(C(=N)N)cc2)cc1` [Example 55, 4-(5-[4-(5-ethyl-2-isopropyl-1,3-thiazol-4-yl)phenoxy]pentoxy)-benzamidine] showed an inhibition at 1 µM of 67.8%.
Compound `CCc1sc(N)nc1-c1ccc(OCCCCCOc2ccc(C(=N)NO)cc2)cc1` [Example 60, N-hydroxy-4-(5-[4-(2-amino-5-ethyl-1,3-thiazol-4-yl)phenoxy]pentoxy)-benzamidine] has an inhibition at 1 µM of 28.2%.

Same assay, conditions: co-culture of bone marrow cells and osteoblast, 7 days, TRAP-positive osteoclasts versus controls
In the case of `Cc1sc(N2CCCCC2)nc1-c1ccc(OCCCCCOc2ccc(C(=N)NO)cc2)cc1` [Example 164, N-hydroxy-4-(5-[4-(5-methyl-2-piperdino-1,3-thiazol-4-yl)phenoxy]pentoxy)-benzamidine], the “% inhibitory activity on osteoclastogenesis” value is reported as 67.4%.
With `CCc1sc(N(Cc2cccnc2)Cc2cccnc2)nc1-c1ccc(OCCCCCOc2ccc(C(=N)NO)cc2)cc1` [Example 137] the “% inhibitory activity on osteoclastogenesis” value was 62.7%.
